Test results from PubChem BioAssay AID1324 (NMMLSC, 2008).
Activity calls are given as the source filed them. No rule for the calls is given here.

The compounds below were run against glutathione S-transferase (GST-GSH binding) (assay: GST–glutathione interaction disruption – biochemical, multiplex beads, flow cytometry, HPSMTB buffer, profiling panel (AID 1324;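 also: glutathione beads loaded with GST-green fluorescent protein and no fluorescent Bim peptide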)). Conditions: multiplex bead flow cytometry, MCF.

| SMILES | EC50 |
| --- | --- |
| O=C1c2ccccc2-c2onc3ccc(NCc4ccco4)c1c23 | inactive |
| CCOCCCNc1nc(=S)[nH]c2cc(OC)c(OC)cc12 | inactive |
| O=C1c2ccccc2-c2onc3ccc(NCCCn4ccnc4)c1c23 | inactive |
| COc1cc(OC)c([N+](=O)[O-])cc1/C=N/NC(=O)c1ccncc1 | inactive |

Same assay, conditions: multiplex bead flow cytometry, MCF, concentration not given here

| SMILES | percent span inhibition |
| --- | --- |
| O=C(/C=C/c1ccc(-c2ccccc2[N+](=O)[O-])o1)c1ccccc1 | inactive |
| CCC(=O)OCCNc1cc(Sc2nc3ccccc3[nH]2)c2nonc2c1[N+](=O)[O-] | inactive |
| Cc1cc(OCc2cn3cccnc3n2)ccc1Cl | inactive |
| O=C(Nc1ccccc1)c1ccc2nc(-c3ccco3)c(-c3ccco3)nc2c1 | inactive |
| CCN(CC)c1ccc(-c2nn3c(-c4cccnc4)nnc3s2)cc1 | inactive |
| CCOc1cc(CNc2ccc(N3CCCCC3)cc2)cc(Br)c1OCC(=O)NC(C)(C)C | inactive |
| Cc1cccc(C(=O)N2CCC(c3nc(-c4ccc(S(=O)(=O)N5CCOCC5)cc4)no3)CC2)c1 | inactive |
| CCOc1cc(/C=N/NC(=O)c2cccs2)cc([N+](=O)[O-])c1O | inactive |
| CCOc1ccccc1NC(=O)CSc1ccc2nnc(-c3cccnc3)n2n1 | inactive |
| COc1ccc(NC(=O)c2c(F)cccc2F)cc1S(=O)(=O)Nc1ccc(Br)cc1 | inactive |
| O=C(CNC(=O)c1ccc(S(=O)(=O)N2CCCC2)cc1)N/N=C/c1ccc(Cl)cc1Cl | inactive |
| COc1ccccc1C1=Nc2cccc3cccc(c23)N1 | inactive |
| CC(C)n1nnnc1SCC(=O)N1CCN(C(=O)c2ccco2)CC1 | inactive |
| CN(CC(=O)O/N=C(\N)c1ccc([N+](=O)[O-])cc1)S(=O)(=O)c1ccccc1 | inactive |
| COc1cccc(N2CC(C(=O)Nc3nnc(SCC(=O)c4ccccc4)s3)CC2=O)c1 (stereo unspecified) | inactive |
| CCN1CCN(c2ccc(NC(=O)c3ccc4c(c3)[nH]c(=O)n4Cc3ccc(OC)cc3)cc2)CC1 | inactive |
| C/C(=N/NC(=O)c1cc(O)c(O)c(O)c1)c1ccc([N+](=O)[O-])cc1 | inactive |
| COc1ccc(N2C(=O)C(Cl)=C(Oc3cccc(OC)c3)C2=O)cc1 | inactive |
| N#Cc1cc(-c2ccccc2)nn1-c1ccccc1 | inactive |
| c1ccc(C2=Nc3cccc4cccc(c34)N2)cc1 | inactive |
| O=C(C1=NN(c2ccccc2)C2C(=O)N(c3ccccc3)C(=O)C12)c1ccccc1 (stereo unspecified) | inactive |
| Cc1cccc(-n2c(-c3ccncc3)n[nH]c2=S)c1 | inactive |
| CCCCC(=O)Nc1ccc(C(=O)N2CCC(C(=O)OCC)CC2)cc1 | inactive |

| SMILES | percent span inhibition |
| --- | --- |
| Cc1sc(NC(=O)Cn2cnnn2)nc1-c1ccc(Cl)cc1 | inactive |
| Cc1ccc(S(=O)(=O)N(C)CC(=O)N2CCc3ccccc32)cc1 | inactive |
| COC(=O)/C(=C/c1ccc(F)cc1)NC(C)=O | inactive |
| C=CCN1C(=O)/C(=C/c2ccsc2)SC1=S | inactive |
| COc1cccc(/C=N/NC(=O)c2cc3cc([N+](=O)[O-])ccc3s2)c1O | inactive |
| Cc1cc(N2CCN(C)CC2)nc2ccc(NC(=S)N3CCCCC3)cc12 | inactive |
| CCCCCCn1nc(C(=O)Nc2nc3c(s2)CCCC3)c2ccccc2c1=O | inactive |
| COc1cc(C=Nc2cccc(C)c2)c(O)c([N+](=O)[O-])c1 | inactive |
| COc1ccc(OC)c(NC(=O)COC(=O)c2cc3c(s2)CCC3)c1 | inactive |
| CCN(C(=O)COC(=O)c1cc(-c2ccc(C)o2)nc2ccccc12)C1CCS(=O)(=O)C1 (stereo unspecified) | inactive |
| COc1cc(CNc2ccc3[nH]c(=O)[nH]c3c2)cc(Br)c1OCC(=O)NC(C)(C)C | inactive |
| Cc1onc(-c2ccccc2Cl)c1C(=O)Nc1nn[nH]n1 | inactive |
| COc1ccc(OC)c(-n2c(-c3ccc(C)cc3)n[nH]c2=S)c1 | inactive |
| O=S1(=O)N=C(N(CCO)/N=C/c2ccccc2)c2ccccc21 | inactive |
| CCOc1ccccc1CNc1ccc(O)cc1 | inactive |
| CC1=C2C(CCS2(=O)=O)CC2(C1)C(=O)OC(C)(C)OC2=O (stereo unspecified) | inactive |
| O=C(c1cc(=O)c2ccccc2o1)N1CCN(c2ccccc2F)CC1 | inactive |
| COc1cc(/C=C2\SC(=S)NC2=O)ccc1OS(=O)(=O)c1ccccc1 | inactive |
| Cc1cc(Cl)ccc1N=c1ssnc1Cl | inactive |
| O=C(/C=C/c1c(F)cccc1Cl)Nc1ccncc1 | inactive |
| Cc1ccccc1-n1nc(SCC(=O)O)sc1=S | inactive |
| COc1ccc(-n2cc(-c3ccc(OC)c(OC)c3)[nH]c2=S)cc1 | inactive |
| O=C(CCCN1C(=O)c2cccc3cccc(c23)C1=O)N1CCN(c2ccccn2)CC1 | inactive |

| SMILES | percent span inhibition |
| --- | --- |
| Cc1ccc(C2=N/C(=C/c3cccs3)C(=O)N2Nc2ccccc2)cc1 | inactive |
| CCOC(=O)C1CCCN(c2ncnc3c2cnn3-c2cccc(C)c2)C1 (stereo unspecified) | inactive |
| CCOc1ccc(C2=Nn3c(nnc3-c3ccco3)SC2)cc1 | inactive |
| COc1ccc(OC)c2sc(NC(=O)c3ccc(Br)s3)nc12 | inactive |
| Cc1ccc(C)c(N2CCN(C(=S)Nc3ccc4nc(N5CCN(C)CC5)cc(C)c4c3)CC2)c1 | inactive |
| CNC(=O)/C(C#N)=C/c1c(N(Cc2ccccc2)Cc2ccccc2)nc2c(C)cccn2c1=O | inactive |
| O=C(C[n+]1ccc(-c2nnc3n2CCC3)cc1)c1ccc(Cl)cc1 | inactive |
| CCOC(=O)c1cc2c(=O)n3ccccc3nc2n(Cc2ccco2)c1=NC(=O)c1ccccc1OC | inactive |
| CN1CCN(c2ccccc2N)CC1 | inactive |
| COc1cccc(/C=N/Nc2nn3cnnc3c3ccccc23)c1O | inactive |
| Cc1noc(C)c1COc1ccc(C(=O)Nc2cccnc2)cc1 | inactive |
| CCCn1c(C)cc(-c2csc(N)n2)c1C | inactive |
| CCN(CC)c1ccc(-c2nn3c(-c4ccccc4OC)nnc3s2)cc1 | inactive |
| Cc1ccc(-c2cc(-c3ccccc3Cl)c(C#N)c(N)n2)o1 | inactive |
| CN(CCO)c1cc(Sc2nc3ccccc3s2)c2nonc2c1[N+](=O)[O-] | inactive |
| CC(C)C(=O)NC(c1ccccc1)c1cc([N+](=O)[O-])c2cccnc2c1O (stereo unspecified) | inactive |
| C/C(=N\NC(=O)Cc1cccn1C)c1ccc2ccccc2c1 | inactive |
| CC(=O)OCCNc1cc(Sc2nc3ccccc3[nH]2)c2nonc2c1[N+](=O)[O-] | inactive |
| COc1c(F)c(F)c(C(=O)Nc2ccccc2N2CCN(C(=O)C(C)C)CC2)c(F)c1F | inactive |
| CNc1ccc(Br)cc(C(=O)/C=C/c2cccc(OC)c2OC)c1=O | inactive |
| CCN1C(=O)/C(=C/C=C2\C=CN(CC)c3ccccc32)SC1=S | inactive |
